Common to all, as to test: growth of human tumour cells (NCI), 48 h
For test [1], the system named is HL-60(TB) leukemia.
For test [2], the system named is LOX IMVI melanoma.
Test [3] relates to NCI-H23 lung.
In test [4] the test system is OVCAR-3 ovarian.
For test [5], the system named is SF-268 CNS.
The test system of test [6] is SF-295 CNS.
Test [7] has as its system SK-MEL-28 melanoma.
Test [8] deals with SW-620 colon.
Test [9] relates to UACC-62 melanoma.
Test [10] relates to HCC-2998 colon.

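Tested at 5 concentrations; 48 h exposure; 96-well plates; endpoints linearly interpolated, else capped at highest concentration. GI50 is the concentration that inhibits growth by half. TGI marks complete inhibition of growth.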

In the case of `NC(CSC1(c2ccc(Cl)cc2)c2ccccc2-c2ccccc21)C(=O)O` (stereo unspecified), the TGI was above 100 µM in test [1]; 30.3 µM in test [2]; 41.1 µM in [3]; above 100 µM in test [4]; 50.2 µM in [5]; 37.7 µM in [6]. Moreover, the TGI is above 100 µM in [7], above 100 µM in test [8] and 34.4 µM in [9].

Turning to `O=C(O)c1c[nH]c2c(ccc3[nH]cc(C(=O)O)c(=O)c32)c1=O`, the TGI in [1], in test [2], in test [3], in test [4], in test [5] and in [6] was above 100 µM each time. The TGI in test [7], in test [8] and in [9] was above 100 µM throughout.

`Clc1ccc(Nc2ncnc3c2sc2ncccc23)c(Cl)c1`: the GI50 in [1] is below 0.0137 µM; in [2], 0.0214 µM; in test [3], below 0.01 µM; in [4], 1 µM; in [5], 0.0246 µM; in test [6], 0.0309 µM. Further, the GI50 in [7] is 6.39 µM; in test [8] it was 0.0617 µM; in test [9] it was 0.0279 µM. In addition, the TGI was above 100 µM in test [1]; above 100 µM in [2]; 1.47 µM in test [3]; above 100 µM in test [4]; above 100 µM in test [5]; above 100 µM in [6]. Also, the TGI in test [7] was above 100 µM; in test [8], above 100 µM; in [9] it was 8.37 µM.

Regarding `C=C(C)[C@@H]1CC[C@]2(C(=O)N3CCN(C)CC3)CC[C@]3(C)[C@H](CC[C@@H]4[C@@]5(C)CC[C@H](O)C(C)(C)[C@@H]5CC[C@]43C)[C@@H]12`, the GI50 is 1.91 µM in [10]; 1.87 µM in test [2]; 1.92 µM in [3]; 1.9 µM in test [4]; 2.02 µM in test [5]; 1.68 µM in test [6]. Besides, the GI50 was 1.8 µM in test [7], 1.74 µM in [8] and 1.72 µM in [9]. Moreover, the TGI in [10] was 3.59 µM; in [2], 3.74 µM; in [3], 3.82 µM; in [4] it was 3.49 µM; in test [5], 4.42 µM; in test [6], 3.27 µM. Besides, the TGI was 3.48 µM in [7], 3.7 µM in test [8] and 3.3 µM in [9].

For the molecule `C=CCCCC(O)c1ccc(C(O)c2cnc3ccccc3c2)o1` (stereo unspecified), the GI50 was 19 µM in [10]; 17.1 µM in [2]; 14.3 µM in [3]; 88.2 µM in test [4]; 32.5 µM in test [5]; 35.6 µM in test [6]. The GI50 in [7] is 69.1 µM; in test [8], 38.1 µM; in test [9], 19.8 µM. Besides, the TGI in test [10] was 51.4 µM; in test [2] it was 33.8 µM; in [3] it was 49.6 µM; in test [4], above 100 µM; in test [5] it was above 100 µM; in test [6], above 100 µM. In addition, the TGI is above 100 µM in test [7], above 100 µM in test [8] and 39.8 µM in [9].

With `C=C1CCC2(C(C)=O)COC1(C)O2` (stereo unspecified), the TGI was above 100 µM in test [1]; above 100 µM in test [2]; above 10 µM in [3]; above 100 µM in test [4]; above 100 µM in test [6]; above 100 µM in test [7]. Also, the TGI in test [8] and in [9] was above 100 µM in each case.

Regarding `COc1cc(OC)c(/C=C/C(=O)c2c(O)cc(OC)c(C3CCN(C)CC3)c2OC)c(OC)c1`, the GI50 in test [10] was 1.46 µM; in [1] it was 2.17 µM; in [3] it was 1.41 µM; in [4] it was 1.81 µM; in test [5], 1.63 µM; in test [6] it was 1.56 µM. Also, the GI50 in test [8] is 1.45 µM. In addition, the TGI in test [10] came to 2.82 µM; in test [1], 3.99 µM; in test [3], 2.78 µM; in test [4], 3.32 µM; in [5], 3.29 µM; in test [6], 2.98 µM. For the same molecule, the TGI in [8] was 3.02 µM.

As to `O=[N+]([O-])c1cccc([I+]c2ccccc2)c1`, the GI50 in test [1] is 4.93 µM; in test [2], 6.21 µM; in [3], 10.9 µM; in test [4], 11.3 µM; in test [5], 7.3 µM; in test [6] it was 10.9 µM. Also, the GI50 in [7] is 10.5 µM; in test [8], 6.42 µM. Besides, the TGI in [1] amounted to 41.2 µM; in test [2], 20.1 µM; in test [3] it was 31.2 µM; in test [4], 26.8 µM; in test [5], 21.2 µM; in test [6] it was 25.6 µM. The figures for the TGI in test [7] and in test [8] were 23.2 µM and 26.7 µM, respectively.

`NCCCCCCCCCn1c2c(c3ccccc3c1=O)C(=O)c1ccccc1-2`: the GI50 in [1] was 7.97 µM; in test [2] it was 7.38 µM; in test [3], 7.94 µM; in test [4], 9.46 µM; in test [5], 11.8 µM; in test [6], 9.67 µM. For the same molecule, the GI50 in test [7] was 9.98 µM; in test [8], 6.11 µM; in test [9] it was 9.35 µM. For the same molecule, the TGI in test [1] came to 19.8 µM; in test [2], 23.6 µM; in [3], 17 µM; in test [4] it was 18.8 µM; in test [5], 31.5 µM; in [6], 20.8 µM. Further, the TGI was 23 µM in test [7], 15.6 µM in [8] and 18.1 µM in [9].

With `O=c1[nH]c(-c2ccc([N+](=O)[O-])cc2)nc2ccc(Cl)cc12`, the TGI in test [10], in test [3], in test [5], in test [6], in test [7] and in test [8] was above 100 µM in each case. In [9], this molecule registered a TGI above 100 µM.

With `CCOC(=O)CP(=S)(S)c1ccccc1` (stereo unspecified), the TGI in [1], in test [2], in [3], in test [5], in [7] and in [8] was above 100 µM each time. Further, in test [9], the TGI was above 100 µM.

`c1ccc(N2N=NC3C4CC(C5c6ccccc6C45)C32)cc1` (stereo unspecified): the TGI in test [1] is 85.5 µM; in test [2], 39.6 µM; in test [3] it was 75.9 µM; in test [4], above 100 µM; in test [5] it was above 100 µM; in test [6], above 100 µM. Moreover, the TGI in test [8] and in [9] was above 100 µM in each case.

`COC(=O)Cc1nn2c(nc1=O)sc1ccc3ccccc3c12`: the TGI in test [10], in [1], in test [2], in test [3], in [4] and in test [7] was above 100 µM throughout. This molecule yielded a TGI in [8] above 100 µM.

Take `Cc1cc(C)c(C(=O)/C(=C/c2ccccc2)c2ccccc2)c(C)c1`: the TGI in test [1] is 90.6 µM; in [3] it was above 100 µM; in [4], above 100 µM; in test [5], above 100 µM; in [6] it was above 100 µM; in test [7] it was above 100 µM. In addition, the TGI in test [8] and in [9] was above 100 µM throughout.

As for `COc1cc(/C=C2\CC3C4CCC5=CC(=O)CC[C@]5(C)C4CC[C@]3(C)C2=O)ccc1OCCN1CCCCC1` (stereo partly specified), the GI50 in test [10] is 3.26 µM; in test [2], 1.42 µM; in test [3], 5.33 µM; in test [4], 1.83 µM; in [5], 4.72 µM; in test [6], 2.02 µM. Also, the GI50 was 2.59 µM in test [7], 2.93 µM in test [8] and 2.39 µM in [9]. The TGI in test [10] is 12.5 µM; in test [2], 3.3 µM; in test [3] it was 25.7 µM; in [4] it was 4.59 µM; in test [5], 16.4 µM; in test [6], 4.24 µM. The TGI in test [7] turned out to be 6.13 µM; in test [8] it was 11.7 µM; in test [9] it was 5.84 µM.

For `O=C1c2ccccc2-c2ccccc2C1(Cl)Cl`, the GI50 was 2.29 µM in [1]; 0.314 µM in [2]; 1.57 µM in test [3]; 1.41 µM in test [4]; 1.28 µM in [5]; 1.27 µM in [6]. Further, the GI50 is 1.8 µM in test [7], 1.84 µM in test [8] and 1.66 µM in test [9]. For the same molecule, the TGI was 5.93 µM in [1]; 4.25 µM in test [3]; 2.71 µM in test [4]; 2.59 µM in [5]; 3 µM in test [6]; 3.24 µM in test [7]. The TGI in [8] was found to be 3.82 µM; in [9], 3.34 µM.

In the case of `O=C(O)C1C2CCC(O2)C1C(=O)NCc1cccnc1` (stereo unspecified), the TGI in test [2], in [3], in [4], in [6], in [7] and in test [8] was above 100 µM throughout. This molecule gave a TGI in [9] above 100 µM.

In the case of `Cn1c(=O)c(-c2c(Cl)cccc2Cl)cc2cnc(Nc3ccc(I)cc3)nc21`, the GI50 in [10] was below 0.0293 µM; in [2] it was 0.271 µM; in [3] it was 0.065 µM; in test [4], 0.0158 µM; in test [6], 0.147 µM; in test [7], 0.479 µM. The GI50 in [8] is 0.0188 µM; in test [9], 0.301 µM. Besides, the TGI was 0.213 µM in [10]; 1.12 µM in test [2]; 0.469 µM in [3]; 0.064 µM in test [4]; 1.41 µM in test [6]; above 73.6 µM in test [7]. Further, the TGI amounted to 2.49 µM in [8] and 1.28 µM in test [9].

On to `O=C(Nc1nc(-c2ccccc2Cl)cs1)c1cc(-c2ccc(Cl)cc2)nc2ccc(Cl)cc12`, for which the GI50 was 5.61 µM in [10]; 0.457 µM in [2]; 3.8 µM in test [3]; 2.64 µM in [4]; 2.37 µM in test [5]; 3.16 µM in [6]. Moreover, the results for the GI50 in [7], in test [8] and in [9] were 5.61 µM, 4.01 µM and 2.47 µM, respectively. The TGI is above 100 µM in test [10]; 20.8 µM in test [2]; above 100 µM in test [3]; 13.1 µM in test [4]; 32.9 µM in test [5]; 23.3 µM in test [6]. Also, the TGI in test [7] is above 100 µM; in test [8], above 100 µM; in test [9], 26 µM.

Turning to `CS(=O)(=O)c1ccc(-c2cnc(NCc3ccco3)n3cnnc23)cc1`, the GI50 is above 100 µM in [10]; 39.7 µM in test [1]; 60.1 µM in test [2]; above 100 µM in test [3]; above 100 µM in test [4]; above 100 µM in test [5]. Further, the GI50 in test [6] was above 100 µM; in [7], 25.3 µM; in test [8] it was above 100 µM. Besides, the TGI in test [10], in test [1], in test [2], in [3], in [4] and in test [5] was above 100 µM throughout. The TGI in [6], in test [7] and in [8] was above 100 µM each time.

With `C1C[S][Ge]2([S]CCS1)[S]CCSCC[S]2`, the GI50 in test [10], in [1], in [3], in test [5], in [7] and in [9] was above 100 µM in each case. Also, the TGI in test [10], in [1], in test [3], in [5], in [7] and in test [9] was above 100 µM each time.

For the origin of these results see PubChem BioAssay (NCI).
